Measured values reported in patent EP1325958A1, “Genetic sequence coding for creatinine deiminase, and its use” (CampusGen GmbH, priority 2002, dated 2003).

Experiments:
[1] = test system: Creatinin-Deiminase (EC 3.5.4.21) aus Tissierella creatinini, heterolog in E. coli exprimiert, gereinigt, SEQ ID NO:2; test: Interference studies: substances added to the standard creatinine deiminase test, enzyme activity determined; assay type: biochemical; conditions: for Keine Interferenzen bis zu einer Konzentration von: substance added to the standard test (Creatinin 1,5 mmol/l, 37°C, pH 8,6), no interference with the enzyme test at the stated concentration
Experimental: Dieses erfindungsgemäße Verfahren ermöglicht die Bestimmung von Creatinin bei Einsatz von nur zwei Enzymen, die in einer Mess- bzw. Indikatorreaktion eingesetzt werden, wobei keine komplizierten Hilfsreaktionen erforderlich sind. Wie in Tabelle 1 gezeigt ist, weist die erfindungsgemäße Creatinin-Deiminase eine außerordentlich hohe Spezifität für sein Substrat Creatinin auf. Das Enzym zeigt insbesondere mit Cytosin bis zu einer Konzentration von […] keine Interferenz in der Reaktion. Somit ermöglicht die erfindungsgemäße Creatinin-Deiminase eine Bestimmung von Creatinin auch in Gegenwart anderer Substrate, insbesondere Cytosin ohne das Auftreten einer Interferenz, die das Messergebnis verfälschen würde. Tabelle 1:
Die Aktivität des gereinigten rekombinanten Enzyms wurde durch eine modifizierte enzymatische Methode nach Bergmeyer 1985 (BERGMEYER, H.U. (1985). Methods of enzymatic analysis 8: 488-507) bestimmt. Sie beruht auf der Messung des während der Creatinindeiminierung freigesetzten Ammoniaks in einem gekoppelten optischen Test durch Verbrauch von NADH bei 340 nm bzw. 365 nm. Der Reaktionsansatz enthielt folgende Konzentrationen in einem Endvolumen von 0,6 ml: TEA-Puffer 0,11 mol/l, pH 8,6; Creatinin 1,5 mmol/l; ADP 1,11 mmol/l; DTE 1 mmol/l; NADH 0,11 mmol/l; 2-Oxoglutarat 11 mmol/l; Glutamat-Dehydrogenase 8 U/ml. Nach Inkubation des Reaktionsansatzes (5 min bei 37°C) in einer Küvette im Photometer wurde die Reaktion mit 0,01 ml des gereinigten rekombinanten Enzyms gestartet und die Extinktionsabnahme bei 340 nm beobachtet. Eine Enzymeinheit katalysiert den Abbau von 1 µmol Creatinin/min bei 37°C.
Es wurden Interferenzstudien mit der gereinigten heterolog exprimierten Creatinin-Deiminase mit verschiedenen in Seren relevanten Substanzen durchgeführt. Diese wurden zum Standardtestansatz gegeben und jeweils die Aktivität der Creatinin-Deiminase bestimmt. In Tabelle 1 sind die getesteten relevanten Substanzen aufgelistet, die in den angegebenen Konzentrationen keine Interferenzen mit dem Enzymtest zeigten. Die rekombinante Creatinin-Deiminase zeigte eine außerordentliche Substratspezifität bei Zusatz der in Tabelle 1 angegebenen Substanzen.

[2] = test system: Creatinin-Deiminase (EC 3.5.4.21) aus Tissierella creatinini, heterolog in E. coli exprimiert, gereinigt, SEQ ID NO:2; test: Substrate saturation of purified recombinant creatinine deiminase (coupled optical test, Lineweaver-Burk plot); assay type: biochemical
Source text: Abb. 1: Biosynthese von Creatin und Creatinin im menschlichen Körper. Die Synthese erfolgt in mehreren Schritten in verschiedenen Körperorganen. Abb. 2: Enzymatische Bestimmung von Creatinin mit Creatininase, Creatin-Kinase, Pyruvat-Kinase und Laktatdehydrogenase. Creatinin wird katalysiert durch Creatininase und Creatin-Kinase gekoppelt mit Pyruvatbildung. Das Pyruvat wird in der Indikatorreaktion in Gegenwart von Laktatdehydrogenase zu Laktat umgesetzt und dabei eine Extinktionsabnahme bei 340 nm von NADH gemessen. Abb.3: Enzymatische Bestimmung von Creatinin mit Creatininase, Creatinase, Sarcosinoxidase und Peroxidase. Creatinin wird katalysiert durch Creatininase, Creatinase und Sarcosinoxidase zu Glycin, Formaldehyd und H2O2 abgebaut. Das H2O2 wird in der Indikatorreaktion mittels Peroxidase anhand der Extinktionszunahme bei 510 oder 546 nm bestimmt. Abb.4: Enzymatische Bestimmung von Creatinin mit Creatinin-Deiminase und Glutamatdehydrogenase. Creatinin wird katalysiert durch Creatinin-Deiminase zu N-Methylhydantoin und Ammoniak abgebaut. Der Ammoniak wird mit α-Ketoglutarat und NADH mittels Glutamat-Dehydrogenase zu Glutamat umgesetzt und photometrisch die Extinktionsabnahme durch Verbrauch an NADH bei 340 bzw. 365 nm gemessen. Abb. 5: Schematische Darstellung des pBluescriptSK^+-Vektors. Gezeigt sind einige Restriktionsschnittstellen. […]

SMILES	Keine Interferenzen bis zu einer Konzentration von [1]	also measured
Nc1nc(=O)[nH]cc1F [5-Fluorocytosin]	1000 mg/L	
CC(C)=O [Aceton]	2000 mg/L	
O=C1O[C@H]([C@@H](O)CO)C(O)=C1O [Ascorbinsäure]	200 mg/L	
C[C@H](CS)C(=O)N1CCC[C@H]1C(=O)O [Captopril]	83 mg/L	
CN(CC(=O)O)C(=N)N [Creatin]	2000 mg/L	
CN1CC(=O)N=C1N [Creatinin]		Km ([2]; purified recombinant enzyme, 0,06 µg per test, coupled optical test, 37°C, TEA-Puffer pH 8,6, read-out: Km-Wert für Creatinin): 1100 µM; Vmax ([2]; substrate Creatinin, this enzyme preparation, Proteinkonzentration: 6 µg/ml --> 1467 U/mg): 8,8 U/ml
Nc1cc[nH]c(=O)n1 [Cytosin]	2000 mg/L	keine Interferenz in der Reaktion bis zu einer Konzentration von ([1]; statement in the text referring to Tabelle 1): 2000 mg/mL
CNC[C@H](O)c1ccc(O)c(O)c1 [Epinephrin]	0,05 mg/l	
NS(=O)(=O)c1cc(C(=O)O)c(NCc2ccco2)cc1Cl [Fuoresemid]	4433 mg/L	
OC[C@H]1OC(O)[C@H](O)[C@@H](O)[C@@H]1O (some centres unmarked) [Glukose]	1100 mg/L	
N[C@@H](Cc1c[nH]cn1)C(=O)O [Histidin]	2250 mg/L	
NCC(O)c1cccc(O)c1 (centres unmarked) [Norfenefrin]	1,5 mg/l	
O=C(O)C(=O)O [Oxalsäure]	400 mg/L	
O=C(O)c1cc(N=Nc2ccc(S(=O)(=O)Nc3ccccn3)cc2)ccc1O [Salazosulfapyridin]	550 mg/L	
Cc1cc(NS(=O)(=O)c2ccc(N)cc2)no1 [Sulfatmethoxazol]	500 mg/L	
COc1cc(Cc2cnc(N)nc2N)cc(OC)c1OC [Trimethoprim]	46 mg/L	
CN[C@H](CC(C)C)C(=O)N[C@H]1C(=O)N[C@@H](CC(N)=O)C(=O)N[C@H]2C(=O)N[C@H]3C(=O)N[C@H](C(=O)N[C@H](C(=O)O)c4cc(O)cc(O)c4-c4cc3ccc4O)[C@H](O)c3ccc(c(Cl)c3)Oc3cc2cc(c3O[C@@H]2O[C@H](CO)[C@@H](O)[C@H](O)[C@H]2O[C@H]2C[C@](C)(N)[C@H](O)[C@H](C)O2)Oc2ccc(cc2Cl)[C@H]1O [Vancomycin]	288 mg/L	
CC(N)(Cc1ccc(O)c(O)c1)C(=O)O (stereo not drawn) [α-Methyl-Dopa]	107 mg/L	
